Where “and” joins values, the source holds several entries; their conditions need not be identical. Identical values can stand only once. Toxic doses and inconclusive results are not listed.
Tested on: P388 leukemia ip, CD2F1 mice, survival T/C
Assay: NCI In Vivo Anticancer Drug Screen. Data for tumor model P388 Leukemia (intraperitoneal) in CD2F1 (CDF1) mice
Settings: endpoint: median survival time, higher = longer survival
Outline: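 Mice carrying the transplanted tumor received test compound or vehicle. Survival was recorded in each group, and the value is the treated-group measurement divided by that of the vehicle-treated control group.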

[1] = dose: 50.0 mg/kg/injection, schedule: Q01DX005 (ip), vehicle: saline with Tween-80
[2] = dose: 100.0 mg/kg/injection, schedule: Q01DX001 (ip), vehicle: saline with Tween-80
[3] = dose: 200.0 mg/kg/injection, schedule: Q01DX001 (ip), vehicle: saline with Tween-80
[4] = dose: 400.0 mg/kg/injection, schedule: Q01DX001 (ip), vehicle: saline with Tween-80
[5] = dose: 60.0 mg/kg/injection, schedule: Q01DX005 (ip), vehicle: saline with Tween-80
[6] = dose: 120.0 mg/kg/injection, schedule: Q01DX005 (ip), vehicle: saline with Tween-80
[7] = dose: 240.0 mg/kg/injection, schedule: Q01DX005 (ip), vehicle: saline with Tween-80
[8] = dose: 120.0 mg/kg/injection, schedule: Q01DX005 (ip), vehicle: Klucel (hydroxypropylcellulose) (HPC)
[9] = dose: 240.0 mg/kg/injection, schedule: Q01DX005 (ip), vehicle: Klucel (hydroxypropylcellulose) (HPC)
[10] = dose: 100.0 mg/kg/injection, schedule: Q01DX005 (ip), vehicle: saline with Tween-80
[11] = dose: 200.0 mg/kg/injection, schedule: Q01DX005 (ip), vehicle: saline with Tween-80
[12] = dose: 25.0 mg/kg/injection, schedule: Q01DX005 (ip), vehicle: Klucel (hydroxypropylcellulose) (HPC)
[13] = dose: 50.0 mg/kg/injection, schedule: Q01DX005 (ip), vehicle: Klucel (hydroxypropylcellulose) (HPC)
[14] = dose: 100.0 mg/kg/injection, schedule: Q01DX005 (ip), vehicle: Klucel (hydroxypropylcellulose) (HPC)
[15] = dose: 200.0 mg/kg/injection, schedule: Q01DX005 (ip), vehicle: Klucel (hydroxypropylcellulose) (HPC)

With N#CN(Cc1ccccc1)C(c1ccccc1)(c1ccccc1)c1ccccc1.[I][Sn]([c]1ccccc1)([c]1ccccc1)[c]1ccccc1 the T/C (dose: 3.12 mg/kg/injection, schedule: Q01DX005 (ip), vehicle: saline with Tween-80) was 98 % of control and the T/C (dose: 6.25 mg/kg/injection, schedule: Q01DX005 (ip), vehicle: saline with Tween-80) was 92 % of control.
COC(=O)C1(C)CCCC2(C)c3cc(O)c(C(C)C)cc3CCC12 (configuration not stated) was tested, and the T/C (dose: 100.0 mg/kg/injection, schedule: Q01DX001 (ip), vehicle: Klucel (hydroxypropylcellulose) (HPC)) was 94 % of control, the T/C (dose: 200.0 mg/kg/injection, schedule: Q01DX001 (ip), vehicle: Klucel (hydroxypropylcellulose) (HPC)) was 94 % of control and the T/C (dose: 400.0 mg/kg/injection, schedule: Q01DX001 (ip), vehicle: Klucel (hydroxypropylcellulose) (HPC)) was 100 % of control.
In the case of c1csc(SSc2nccs2)n1, the T/C (dose: 25.0 mg/kg/injection, schedule: Q04DX002 (ip), vehicle: saline with Tween-80) was 104 % of control, the T/C (dose: 50.0 mg/kg/injection, schedule: Q04DX002 (ip), vehicle: saline with Tween-80) was 103 % of control and the T/C (dose: 100.0 mg/kg/injection, schedule: Q04DX002 (ip), vehicle: saline with Tween-80) was 103 % of control and 105 % of control.
With C#CCOC(=O)c1ccccc1 the T/C (dose: 12.5 mg/kg/injection, schedule: Q01DX005 (ip), vehicle: saline with Tween-80) was 104 % of control, the T/C (dose: 25.0 mg/kg/injection, schedule: Q01DX005 (ip), vehicle: saline with Tween-80) was 89 % of control and the T/C [1] was 104 % of control and 95 % of control.
COc1ccccc1N=C(NC#N)C(c1ccccc1)c1ccccc1 was tested, and the T/C [2] was 99 % of control, the T/C [3] was 97 % of control and the T/C [4] was 93 % of control.
In the case of [CH3][Sn]([CH3])([Cl])[CH2]CC[CH2][Sn]([CH3])([Cl])[Cl], the T/C (dose: 0.78 mg/kg/injection, schedule: Q01DX009 (ip), vehicle: saline) was 99 % of control, the T/C (dose: 1.56 mg/kg/injection, schedule: Q01DX009 (ip), vehicle: saline) was 89 % of control and the T/C (dose: 3.12 mg/kg/injection, schedule: Q01DX009 (ip), vehicle: saline) was 89 % of control.
For COc1ccc(CCNC(=O)Cc2ccc(OC)c(OC)c2)cc1OC, the T/C (dose: 100.0 mg/kg/injection, schedule: Q01DX009 (ip), vehicle: saline with Tween-80) was 100 % of control, the T/C (dose: 200.0 mg/kg/injection, schedule: Q01DX009 (ip), vehicle: saline with Tween-80) was 106 % of control and the T/C (dose: 400.0 mg/kg/injection, schedule: Q01DX009 (ip), vehicle: saline with Tween-80) was 123 % of control.
For Nc1ccc(N)c(N)n1, the T/C (dose: 6.25 mg/kg/injection, schedule: Q01DX009 (ip), vehicle: saline) was 95 % of control, the T/C (dose: 12.5 mg/kg/injection, schedule: Q01DX009 (ip), vehicle: saline) was 104 % of control and the T/C (dose: 25.0 mg/kg/injection, schedule: Q01DX009 (ip), vehicle: saline) was 100 % of control.
For CCNC(=O)c1c(C)nc(-c2ccccc2)nc1Nc1ccc(OCC)cc1, the T/C [5] was 98 % of control, the T/C [6] was 98 % of control and the T/C [7] was 103 % of control.
For CCN(Cc1c(C)[nH]c2cc(N(C)C)ccc2c1=O)Cc1c(C)[nH]c2cc(N(C)C)ccc2c1=O, the T/C (dose: 60.0 mg/kg/injection, schedule: Q01DX005 (ip), vehicle: Klucel (hydroxypropylcellulose) (HPC)) was 90 % of control, the T/C [8] was 92 % of control and the T/C [9] was 91 % of control.
CC(NNC(=S)N1CCCCCC1)c1cc2ccccc2cn1 (configuration not stated) was tested, and the T/C [1] was 108 % of control and 98 % of control, the T/C [10] was 112 % of control and the T/C [11] was 123 % of control. For the same compound, the T/C (dose: 400.0 mg/kg/injection, schedule: Q01DX005 (ip), vehicle: saline with Tween-80) was 153 % of control.
With CCCCCCCC/C=C\CCCCCCCC(=O)OCCSCCOC(C)=O the T/C (dose: 50.0 mg/kg/injection, schedule: Q01DX009 (ip), vehicle: Klucel (hydroxypropylcellulose) (HPC)) was 94 % of control, the T/C (dose: 100.0 mg/kg/injection, schedule: Q01DX009 (ip), vehicle: Klucel (hydroxypropylcellulose) (HPC)) was 101 % of control and the T/C (dose: 200.0 mg/kg/injection, schedule: Q01DX009 (ip), vehicle: Klucel (hydroxypropylcellulose) (HPC)) was 94 % of control.
CCOP(=O)(O)C1CCCC(C)[N-]1.CCOP(=O)(O)C1CCCC(C)[N-]1.[Mn+2] (configuration not stated) was tested, and the T/C (dose: 100.0 mg/kg/injection, schedule: Q04DX003 (ip), vehicle: Klucel (hydroxypropylcellulose) (HPC)) was 100 % of control and the T/C (dose: 200.0 mg/kg/injection, schedule: Q04DX003 (ip), vehicle: Klucel (hydroxypropylcellulose) (HPC)) was 111 % of control.
With Nc1nc(N)nc(Nc2ccc(-c3cc4ccc(-c5ncc[nH]5)cc4[nH]3)cc2)n1 the T/C (dose: 30.0 mg/kg/injection, schedule: Q01DX005 (ip), vehicle: Klucel (hydroxypropylcellulose) (HPC)) was 153 % of control, the T/C [8] was 164 % of control and 171 % of control and the T/C [9] was 183 % of control and 188 % of control.
With Cc1cc2nc(C(C)(C)F)c(=O)[nH]c2cc1C the T/C [2] was 102 % of control, the T/C [3] was 94 % of control and the T/C [4] was 96 % of control.
In the case of CN(C)c1nc(=O)c(-c2ccccc2)c(-c2ccccc2)o1, the T/C (dose: 100.0 mg/kg/injection, schedule: Q04DX002 (ip), vehicle: Klucel (hydroxypropylcellulose) (HPC)) was 103 % of control, the T/C (dose: 200.0 mg/kg/injection, schedule: Q04DX002 (ip), vehicle: Klucel (hydroxypropylcellulose) (HPC)) was 106 % of control and the T/C (dose: 400.0 mg/kg/injection, schedule: Q04DX002 (ip), vehicle: Klucel (hydroxypropylcellulose) (HPC)) was 103 % of control.
For Nc1ccc(C(=O)c2cccs2)cn1, the T/C (dose: 50.0 mg/kg/injection, schedule: Q01DX005 (ip), vehicle: distilled water + alcohol) was 98 % of control and the T/C (dose: 100.0 mg/kg/injection, schedule: Q01DX005 (ip), vehicle: distilled water + alcohol) was 104 % of control.
For O=C1NN2CCCN=C2c2cnccc21, the T/C (dose: 50.0 mg/kg/injection, schedule: Q01DX005 (ip), vehicle: saline) was 110 % of control, the T/C (dose: 100.0 mg/kg/injection, schedule: Q01DX005 (ip), vehicle: saline) was 97 % of control and the T/C (dose: 200.0 mg/kg/injection, schedule: Q01DX005 (ip), vehicle: saline) was 89 % of control.
In the case of CC1(C(Cl)(Cl)Cl)C=C(Cl)C(=O)C(Cl)=C1, the T/C [12] was 99 % of control, the T/C [13] was 98 % of control and 92 % of control and the T/C [14] was 102 % of control. For the same compound, the T/C [15] was 92 % of control.
For O=C(/C=N/Nc1ccccc1)Nc1ccccc1C(=O)O, the T/C [13] was 102 % of control, the T/C [14] was 105 % of control and the T/C [15] was 93 % of control.
Nc1n[nH]c(=O)c2cccnc12 was tested, and the T/C [1] was 97 % of control, the T/C [10] was 99 % of control and the T/C [11] was 101 % of control.
For c1ccc2c(c1)C1CCC2[n+]2ccccc21 (configuration not stated), the T/C (dose: 6.25 mg/kg/injection, schedule: Q01DX005 (ip), vehicle: Klucel (hydroxypropylcellulose) (HPC)) was 108 % of control, the T/C (dose: 12.5 mg/kg/injection, schedule: Q01DX005 (ip), vehicle: Klucel (hydroxypropylcellulose) (HPC)) was 106 % of control and the T/C [12] was 110 % of control.
In the case of N#CC(C(=O)C(=O)Nc1cccc(C(F)(F)F)c1)c1ccccc1 (configuration not stated), the T/C [1] was 93 % of control and the T/C [10] was 100 % of control.
In the case of COC1=C(N2CC2)C(=O)C(OC)=C(N2CC2)C1=O, the T/C (dose: 4.0 mg/kg/injection, schedule: Q04DX003 (ip), vehicle: saline with Tween-80) was 159 % of control.
CC(N=Cc1cccs1)c1ccccc1 (configuration not stated) was tested, and the T/C (dose: 100.0 mg/kg/injection, schedule: Q04DX003 (ip), vehicle: saline) was 98 % of control, the T/C (dose: 200.0 mg/kg/injection, schedule: Q04DX003 (ip), vehicle: saline) was 95 % of control and the T/C (dose: 400.0 mg/kg/injection, schedule: Q04DX003 (ip), vehicle: saline) was 99 % of control.
With COc1ccc(C(=O)c2ncccc2C(=O)O)cc1OC the T/C (dose: 25.0 mg/kg/injection, schedule: Q01DX009 (ip), vehicle: other) was 93 % of control, the T/C (dose: 50.0 mg/kg/injection, schedule: Q01DX009 (ip), vehicle: other) was 88 % of control and the T/C (dose: 100.0 mg/kg/injection, schedule: Q01DX009 (ip), vehicle: other) was 100 % of control. For the same compound, the T/C (dose: 200.0 mg/kg/injection, schedule: Q01DX009 (ip), vehicle: other) was 97 % of control and the T/C (dose: 400.0 mg/kg/injection, schedule: Q01DX009 (ip), vehicle: other) was 94 % of control.
For CCCCCCCCCCCn1nnnc1N, the T/C [1] was 102 % of control, the T/C [10] was 93 % of control and the T/C [11] was 96 % of control.
Cc1ccc2nc(CC(=O)c3ccccc3)c(CC(=O)c3ccccc3)nc2c1 was tested, and the T/C [5] was 93 % of control, the T/C [6] was 94 % of control and the T/C [7] was 96 % of control.

— PubChem BioAssay AID330 (DTP/NCI, 2004)
